What follows are molecules tested against EHMT2 (Euchromatic histone-lysine N-methyltransferase 2) (Homo sapiens (Human), UniProt Q96KQ7) (assay: EHMT2 enzyme inhibition, LANCE TR-FRET). Details: histone H3 peptide, 1 hour at room temperature.
Type: biochemical
Description: In order to analyze the enzyme inhibitory efficacy of the compounds of Examples 1 to 89, EHMT2 (Euchromatic histone-lysine N-methyltransferase 2) enzyme activity was measured using the LANCE TR-FRET™ analysis method of Perkin Elmer. When the EHMT2 enzyme is activated, the 9th lysine residue of the biotinylated-histone peptide is methylated and the EU-conjugated antibody is combined to the methylated histone peptide. Then, when the complex is irradiated with light of excitation wavelength, the complex emits light having a wavelength of 665 nm through FRET phenomenon. Accordingly, fluorescence was measured, and IC50 values were calculated through a software to evaluate the EHMT2 enzyme activity inhibitory effect of the compounds of Examples 1 to 89.
Specific experimental methods are as follows. First, the compounds of Examples 1 to 89 of 1 nM to 100 μM (4× conc.) were put into a 384 well plate (25 μL/well), and 2 μM EEMT2/G9a enzyme (4× conc.) was put into the 384 well plate (25 μL/well). The plate was then centrifuged at 1,500 rpm for 5 seconds after sealing the plate with plate sealing foil. After incubating the EHMT2/G9a enzyme, SAM, and the compounds of Examples above at room temperature for 10 minutes, 2 μM histone H3 peptide (4× conc.) was added to the 384-well plate (25 μL/well). After sealing the plate with plate sealing foil and centrifuging at 1,500 rpm for 5 seconds, an enzymatic reaction was performed at room temperature for 1 hour. Upon completion of the enzyme reaction, 5 μL each of 200 nM Ulight™-Streptavidin (4× conc.) and 8 nM Eu-antibody (4× conc.) was added to each well of the plate. The plate was sealed with plate sealing foil, centrifuged at 1,500 rpm for 5 seconds and reacted at room temperature for 1 hour. The signal values were measured with Envision (Ex 320 nm, Em 665 nm), and all background values obtained by reacting without enzyme were deleted from the measured raw data values. Then, the EHMT2 enzyme activity inhibitory effect of the compounds of Examples 1 to 89 was converted into % values, and compared with the EHMT2 activity when treated with 4% DMSO vehicle (=0 nM compound) as 100%.

Chain of EHMT2 (Euchromatic histone-lysine N-methyltransferase 2) (Q96KQ7 whole entry): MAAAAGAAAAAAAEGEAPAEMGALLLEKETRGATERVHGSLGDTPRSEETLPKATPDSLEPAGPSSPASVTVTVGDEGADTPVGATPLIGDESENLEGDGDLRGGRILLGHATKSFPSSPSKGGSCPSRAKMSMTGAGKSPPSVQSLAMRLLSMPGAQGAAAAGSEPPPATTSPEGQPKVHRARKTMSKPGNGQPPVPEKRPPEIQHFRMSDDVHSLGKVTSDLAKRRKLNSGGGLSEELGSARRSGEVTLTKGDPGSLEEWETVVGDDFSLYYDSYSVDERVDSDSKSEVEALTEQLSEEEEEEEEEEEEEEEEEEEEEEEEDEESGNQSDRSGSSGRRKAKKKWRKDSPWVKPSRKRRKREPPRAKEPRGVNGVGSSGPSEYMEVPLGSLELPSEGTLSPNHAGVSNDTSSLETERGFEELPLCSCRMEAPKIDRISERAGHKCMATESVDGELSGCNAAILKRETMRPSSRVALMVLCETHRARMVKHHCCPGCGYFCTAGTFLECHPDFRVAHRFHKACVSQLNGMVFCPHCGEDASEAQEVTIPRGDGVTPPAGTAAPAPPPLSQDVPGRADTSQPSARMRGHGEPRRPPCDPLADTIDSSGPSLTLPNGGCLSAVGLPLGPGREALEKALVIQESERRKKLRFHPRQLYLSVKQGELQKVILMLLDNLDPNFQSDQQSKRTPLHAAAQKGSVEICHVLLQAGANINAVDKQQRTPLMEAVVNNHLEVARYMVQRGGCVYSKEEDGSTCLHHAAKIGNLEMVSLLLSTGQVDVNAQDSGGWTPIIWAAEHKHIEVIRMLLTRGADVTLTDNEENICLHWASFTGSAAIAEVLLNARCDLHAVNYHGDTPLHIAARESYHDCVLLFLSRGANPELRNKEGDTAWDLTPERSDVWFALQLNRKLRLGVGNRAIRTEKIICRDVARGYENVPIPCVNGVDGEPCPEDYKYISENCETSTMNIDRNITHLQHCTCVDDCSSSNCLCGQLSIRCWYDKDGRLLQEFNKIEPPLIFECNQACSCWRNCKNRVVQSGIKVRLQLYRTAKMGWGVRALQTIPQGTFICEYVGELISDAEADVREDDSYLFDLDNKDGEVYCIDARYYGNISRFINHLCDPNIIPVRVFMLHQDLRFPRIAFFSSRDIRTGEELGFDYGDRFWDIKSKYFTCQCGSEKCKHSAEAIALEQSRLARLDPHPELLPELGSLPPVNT

SMILES	IC50 [µM]
COc1cc2c(NC3CCN(C4CC4)CC3)nc(N3CC[C@@H](F)C3)nc2cc1C#CCCN1CCCC1 [Example 74, (R)-N-(1-cyclopropylpiperidine-4-yl)-2-(3-fluoropyrrolidine-1-yl)-6-methoxy-7-(4-(pyrrolidine-1-yl)-1-butyne-1-yl)quinazoline-4-amine]	0.1 to 1
COc1cc2c(NC3CCN(CCO)CC3)nc(N(C)C)nc2cc1C#CCCN1CCCC1 [Example 87, 2-(4-((2-(dimethylamino)-6-methoxy-7-(4-(pyrrolidine-1-yl)-1-butyne-1-yl)quinazoline-4-yl)amino)piperidine-1-yl) ethanol]	< 0.1
COc1cc2c(NC3CCN(C(C)C)CC3)nc(N3CCC(F)(F)CC3)nc2cc1C#CCCN1CCCC1 [Example 35, 2-(4,4-difluoropiperidine-1-yl)-N-(1-isopropylpiperidine-4-yl)-6-methoxy-7-(4-(pyrrolidine-1-yl)-1-butyne-1-yl)quinazoline-4-amine]	1 to 10
COc1cc2c(NC3CCN(C(C)C)CC3)nc(N3CCCN(C)CC3)nc2cc1C#CCCN1CCCC1 [Example 48, N-(1-isopropylpiperidine-4-yl)-6-methoxy-2-(4-methyl-1,4-diazepane-1-yl)-7-(4-(pyrrolidine-1-yl)-1-butyne-1-yl)quinazoline-4-amine]	< 0.1
COc1cc2c(NCCN3CCCC3)nc(N3CCCCC3)nc2cc1C#CCCN(C)C [Example 20, 7-(4-(dimethylamino)-1-butyne-1-yl)-6-methoxy-2-(piperidine-1-yl)-N-(2-(pyrrolidine-1-yl)ethyl)quinazoline-4-amine]	1 to 10
CCN(CC)CCC#Cc1cc2nc(N3CCCCC3)nc(NC3CCN(C(C)C)CC3)c2cc1OC [Example 13, 7-(4-(diethylamino)-1-butyne-1-yl)-N-(1-isopropylpiperidine-4-yl)-6-methoxy-2-(piperidine-1-yl)quinazoline-4-amine]	1 to 10
COc1cc2c(NC3CCN(C(C)C)CC3)nc(N3CCCCC3)nc2cc1C#CCCN1CC(F)C1 [Example 33, 7-(4-(3-fluoroazetidine-1-yl)-1-butyne-1-yl)-N-(1-isopropylpiperidine-4-yl)-6-methoxy-2-(piperidine-1-yl)quinazoline-4-amine]	10 to 100
COc1cc2c(NCCN(C)C)nc(N3CC[C@H](F)C3)nc2cc1C#CCCN1CCCC1 [Example 79, (S)-N1-(2-(3-fluoropyrrolidine-1-yl)-6-methoxy-7-(4-(pyrrolidine-1-yl)-1-butyne-1-yl)quinazoline-4-yl)-N2,N2-dimethylethane-1,2-diamine]	0.1 to 1
COc1cc2c(NC3CCN(C)CC3)nc(N3CCCCC3)nc2cc1C#CCCN(C)C [Example 22, 7-(4-(dimethylamino)-1-butyne-1-yl)-6-methoxy-N-(1-methylpiperidine-4-yl)-2-(piperidine-1-yl)quinazoline-4-amine]	0.1 to 1
CCN1CCC(Nc2nc(N3CCCC3)nc3cc(C#CCCN4CC[C@H](F)C4)c(OC)cc23)CC1 [Example 78, (S)-N-(1-ethylpiperidine-4-yl)-7-(4-(3-fluoropyrrolidine-1-yl)-1-butyne-1-yl)-6-methoxy-2-(pyrrolidine-1-yl)quinazoline-4-amine]	< 0.1
COc1cc2c(NC3CCN(C(C)C)CC3)nc(N3CC[C@H](F)C3)nc2cc1C#CCCN1CCCC1 [Example 57, (S)-2-(3-fluoropyrrolidine-1-yl)-N-(1-isopropylpiperidine-4-yl)-6-methoxy-7-(4-(pyrrolidine-1-yl)-1-butyne-1-yl)quinazoline-4-amine]	< 0.1
CCN1CCC(Nc2nc(N3CC[C@H](F)C3)nc3cc(C#CCCN4CCCC4)c(OC)cc23)CC1 [Example 72, (S)-N-(1-ethylpiperidine-4-yl)-2-(3-fluoropyrrolidine-1-yl)-6-methoxy-7-(4-(pyrrolidine-1-yl)-1-butyne-1-yl)quinazoline-4-amine]	< 0.1
COc1cc2c(NC3CCN(C(C)C)CC3)nc(N3CCCC3)nc2cc1/C=C/CCN1CCCC1 [Example 85, (E)-N-(1-isopropylpiperidine-4-yl)-6-methoxy-2-(pyrrolidine-1-yl)-7-(4-(pyrrolidine-1-yl)-1-butene-1-yl)quinazoline-4-amine]	< 0.1
COc1cc2c(NC3CCN(C(C)C)CC3)nc(N3CCC(F)(F)CC3)nc2cc1C#CCCN(C)C [Example 4]	1 to 10
COc1cc2c(NCC3CCN(C)CC3)nc(N3CCCCC3)nc2cc1C#CCCN(C)C [Example 31, 7-(4-(dimethylamino)-1-butyne-1-yl)-6-methoxy-N-((1-methylpiperidine-4-yl)methyl)-2-(piperidine-1-yl)quinazoline-4-amine]	1 to 10
COc1cc2c(NC3CCN(C(C)C)CC3)nc(N3CCC(N(C)C)CC3)nc2cc1C#CCCN(C)C [Example 11, 7-(4-(dimethylamino)-1-butyne-1-yl)-2-(4-(dimethylamino)piperidine-1-yl)-N-(1-isopropylpiperidine-4-yl)-6-methoxyquinazoline-4-amine]	1 to 10
COc1cc2c(NC3CCN(C(C)C)CC3)nc(N3C[C@@H]4C[C@@H]4[C@@H]3CO)nc2cc1C#CCCN1CCCC1 [Example 46, ((1S,2R,5R)-3-(4-((1-isopropylpiperidine-4-yl)amino)-6-methoxy-7-(4-(pyrrolidine-1-yl)-1-butyne-1-yl)quinazoline-2-yl)-3-azabicyclo[3.1.0]hexane-2-yl)methanol]	< 0.1
COc1cc2c(NCc3ccncc3)nc(N3CCCCC3)nc2cc1C#CCCN(C)C [Example 32, 7-(4-(dimethylamino)-1-butyne-1-yl)-6-methoxy-2-(piperidine-1-yl)-N-(pyridine-4-ylmethyl)quinazoline-4-amine]	10 to 100
COc1cc2c(NCc3cccnc3)nc(N3CCCC3)nc2cc1C#CCCN1CCCC1 [Example 71, 6-methoxy-N-(pyridine-3-ylmethyl)-2-(pyrrolidine-1-yl)-7-(4-(pyrrolidine-1-yl)-1-butyne-1-yl)quinazoline-4-amine]	0.1 to 1
COc1cc2c(NC3CCN(C(C)C)CC3)nc(N3C[C@@H]4C[C@@H]4[C@@H]3CO)nc2cc1C#CCCN(C)C [Example 10, ((1S,2R,5R)-3-(7-(4-(dimethylamino)-1-butyne-1-yl)-4-((1-isopropylpiperidine-4-yl)amino)-6-methoxyquinazoline-2-yl)-3-azabicyclo[3.1.0]hexane-2-yl)methanol]	0.1 to 1
CCCN1CCC(Nc2nc(N3CC[C@@H](F)C3)nc3cc(C#CCCN4CCCC4)c(OC)cc23)CC1 [Example 84, (R)-2-(3-fluoropyrrolidine-1-yl)-6-methoxy-N-(1-propylpiperidine-4-yl)-7-(4-(pyrrolidine-1-yl)-1-butyne-1-yl)quinazoline-4-amine]	< 0.1
COc1cc2c(NC3CCN(C(C)C)CC3)nc(N3CCOCC3)nc2cc1C#CCCN(C)C [Example 5, 7-(4-(dimethylamino)-1-butyne-1-yl)-N-(1-isopropylpiperidine-4-yl)-6-methoxy-2-morpholinoquinazoline-4-amine]	10 to 100
COc1cc2c(NC3CCN(C(C)C)CC3)nc(N3CCN(C)CC3)nc2cc1C#CCCN(C)C [Example 7, 7-(4-(dimethylamino)-1-butyne-1-yl)-N-(1-isopropylpiperidine-4-yl)-6-methoxy-2-(4-methylpiperazine-1-yl)quinazoline-4-amine]	0.1 to 1
COc1cc2c(NC3CCN(CCO)CC3)nc(N3CCCCC3)nc2cc1C#CCCN1CCCC1 [Example 69, 2-(4-((6-methoxy-2-(piperidine-1-yl)-7-(4-(pyrrolidine-1-yl)-1-butyne-1-yl)quinazoline-4-yl)amino)piperidine-1-yl)ethanol]	< 0.1
COc1cc2c(NC3CCN(C(C)C)CC3)nc(N3CCCCC3)nc2cc1C#CCCN1CCCC1 [Example 16, N-(1-isopropylpiperidine-4-yl)-6-methoxy-2-(piperidine-1-yl)-7-(4-(pyrrolidine-1-yl)-1-butyne-1-yl)quinazoline-4-amine]	< 0.1
COc1cc2c(NC3CCN(C4CC4)CC3)nc(N3CC[C@H](F)C3)nc2cc1C#CCCN1CCCC1 [Example 75, (S)-N-(1-cyclopropylpiperidine-4-yl)-2-(3-fluoropyrrolidine-1-yl)-6-methoxy-7-(4-(pyrrolidine-1-yl)-1-butyne-1-yl)quinazoline-4-amine]	< 0.1

— patent publication US20230365530A1, “QUINAZOLINE-2,4-DIAMINE DERIVATIVE AND PHARMACEUTICAL COMPOSITION FOR PREVENTING OR TREATING CANCER COMPRISING SAME AS ACTIVE INGREDIENT” (THE ASEAN FOUNDATION, priority 2020, published 2023)
